Structures can show the parent of a compound that is named as a salt. Where two headings read alike, the source gives them in different places.
What was measured:
CCK-B receptor = target: T1, CCK-B receptor (Cavia porcellus, UniProt H0VZC5); test: displacement of ^125 I-CCK from guinea pig brain (CCK-B receptor binding); conditions: guinoa pig brain (CCK-B)
T1 construct: guinoa pig brain (CCK-B); from tissue; host or cells: guinea pig brain
T1 sequence (H0VZC5 1-426): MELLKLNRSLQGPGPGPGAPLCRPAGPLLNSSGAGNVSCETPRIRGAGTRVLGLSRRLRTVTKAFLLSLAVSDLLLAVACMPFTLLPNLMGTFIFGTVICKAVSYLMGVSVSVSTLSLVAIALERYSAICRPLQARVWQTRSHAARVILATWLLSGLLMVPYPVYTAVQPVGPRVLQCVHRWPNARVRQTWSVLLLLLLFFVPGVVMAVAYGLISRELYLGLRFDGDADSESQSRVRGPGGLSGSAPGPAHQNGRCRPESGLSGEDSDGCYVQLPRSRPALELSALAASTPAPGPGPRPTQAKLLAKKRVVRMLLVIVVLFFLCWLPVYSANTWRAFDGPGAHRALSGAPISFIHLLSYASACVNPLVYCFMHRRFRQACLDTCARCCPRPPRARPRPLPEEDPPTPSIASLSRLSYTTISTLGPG
Method: (§1) The CCK-A and CCK-B antagonising activity of the compounds described herein was evaluated using the assays described in published European patent application no. […] The method essentially involves determining the concentration of the test compound required to displace 50% of the specific ^125 I--CCK from rat pancreas (CCK-A) or guinoa pig brain (CCK-B).

CCK-A receptor = target: T2, CCK-A receptor (Rattus norvegicus, UniProt P30551); test: displacement of ^125 I-CCK from rat pancreas (CCK-A receptor binding)
T2 sequence (P30551 1-444): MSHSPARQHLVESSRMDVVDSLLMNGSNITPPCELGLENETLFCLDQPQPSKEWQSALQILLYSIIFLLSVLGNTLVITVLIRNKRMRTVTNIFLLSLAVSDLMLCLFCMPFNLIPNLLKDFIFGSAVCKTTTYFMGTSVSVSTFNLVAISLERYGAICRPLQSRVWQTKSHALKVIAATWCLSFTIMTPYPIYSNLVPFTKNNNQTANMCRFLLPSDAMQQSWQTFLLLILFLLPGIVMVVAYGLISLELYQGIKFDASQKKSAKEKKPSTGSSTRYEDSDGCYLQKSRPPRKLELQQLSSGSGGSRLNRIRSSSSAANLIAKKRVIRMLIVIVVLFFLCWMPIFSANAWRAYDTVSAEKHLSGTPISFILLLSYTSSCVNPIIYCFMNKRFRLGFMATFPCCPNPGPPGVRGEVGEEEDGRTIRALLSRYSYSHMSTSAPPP
Method: as §1

[1] = read-out: CCK receptor binding IC50, ^125 I-CCK Brain
[2] = ^125 I-CCK, rat pancreas (CCK-A), read-out: CCK receptor binding IC50, ^125 I-CCK Pancreas

SMILES	IC50 (CCK-B receptor; [1]) [nM]	IC50 (CCK-A receptor; [2]) [nM]	IC50 (CCK-B receptor; CCK receptor binding IC50, ^125 I-CCK Brain) [nM]	IC50 (CCK-A receptor) [nM]
CCCN1C(=O)C(NC(=O)Nc2cccc(C)c2)N=C(C2CCCCN2)c2ccccc21 (single isomer, unassigned) [Example 1, N-[2,3-Dihydro-2-oxo-5-(piperidin-2-yl)-1-(1-propyl)-1H-1,4-benzodiazepin-3-yl]-N'-[3-methylphenyl]urea hydrochloride]	41.8	> 3000	–	–
CCCN1C(=O)C(NC(=O)Nc2cccc(C)c2)N=C(C2CCCCN2)c2ccccc21 (single isomer, unassigned) [Example 2, N-[2,3-Dihydro-2-oxo-5-(piperidin-2-yl)-1-(1-propyl)-1H-1,4,benzodiazepin-3-yl]-N'-[3-methylphenylurea hydrochloride]	36.4	> 3000	–	–
CCCN1C(=O)C(NC(=O)Nc2cccc(C)c2)N=C(C2CCCCN2C)c2ccccc21 (single isomer, unassigned) [Example 3, N-[2,3-Dihydro-5-(1-methylpiperidin-2-yl)-2-oxo-1-(1propyl)-1H-1,4-benzodiazepin-3-yl]-N'-[3-methylphenyl]urea hydrochloride]	–	–	53.6	–
CCCN1C(=O)C(NC(=O)Nc2cccc(C)c2)N=C(C2CCC(C)(C)CCN2C)c2ccccc21 (single isomer, unassigned) [Example 5, N-[2,3-Dihydro-5-(2,3,4,5,6-hexahydro-1,5,5,-trimethyl-1H-azepin-2-yl)-2-oxo-1-(1-propyl)-1H-1,4-benzodiazepin-3-yl]-N'-[3-methylphenyl]urea hydrochloride]	25.5	–	–	–
Cc1cccc(NC(=O)NC2N=C(C3CCC(C)(C)CCN3)c3ccccc3N(C)C2=O)c1 (single isomer, unassigned) [Example 6, N-[2,3-Dihydro-5-(5,5-dimethyl-2,3,4,5,6-hexahydro-1H-azepin-2-yl)-1-methyl-2-oxo-1H-1,4-benzodiazepin-3-yl]-N'-[3-methylphenyl]urea hydrochloride]	12	–	–	–
CCCN1C(=O)C(NC(=O)Nc2ccc3c(c2)CCC3)N=C(C2CC(C)(C)CCN2)c2ccccc21 (single isomer, unassigned) [Example 12, N-[2,3-Dihydro-5-(4,4-dimethylpiperidin-2-yl)-2-oxo-1-(1-propyl)-1H, 1,4-benzodiazepin-3-yl-N'-[5-indanyl]urea hydrochloride]	–	–	–	3220

Further lines, with some results ahead:

IC50 (CCK-B receptor; [1]) [nM]	IC50 (CCK-A receptor; [2]) [nM]	SMILES	IC50 (CCK-B receptor; CCK receptor binding IC50, ^125 I-CCK Brain) [nM]	IC50 (CCK-A receptor) [nM]
2.37	6490	CN1C(=O)C(NC(=O)Nc2ccc3c(c2)CCC3)N=C(C2CCC(C)(C)CCN2)c2ccccc21 (single isomer, unassigned) [Example 7, N-[2,3-Dihydro-5-(5,5-dimethyl-2,3,4,5,6-hexahydro-1H-azepin-2-yl)-1-methyl-2-oxo-1H-1,4-benzodiazepin-3-yl]-N'-[5-indanyl]urea hydrochloride]	–	–
1.47	–	CCCN1C(=O)C(NC(=O)Nc2cccc(C)c2)N=C(C2CC(C)(C)CCN2)c2ccccc21 (single isomer, unassigned) [Example 8, N-[2,3-Dihydro-5-(4,4-dimethylpiperidin-2-yl)-2-oxo-1-(1-propyl)-1H-1,4-benzodiazepin-3-yl]-N'-[3-methylphenyl]urea hydrochloride]	–	–
290	2670	Cc1cccc(NC(=O)NC2N=C(C3CCNCC3)c3ccccc3N(CC(C)C)C2=O)c1 (centres unmarked) [Example 9, N-[2,3-Dihydro-1-(2-methylpropyl)-2-oxo-5-(piperidin-4-yl)-1H-1,4-benzodiazepin-3-yl]-N'-[3-methylpheny]urea trifluoroacetic acid salt]	–	–
240	2930	Cc1cccc(NC(=O)NC2N=C(C3CCN(C)CC3)c3ccccc3N(CC(C)C)C2=O)c1 (centres unmarked) [Example 10, N-[2,3-Dihydro-5-(N-methylpiperidin-4-yl)-1-(2-methylpropyl)-2-oxo-1H-1,4-benzodiazepin-3-yl]-N'-[3-methylphenyl]urea hydrochloric acid salt]	–	–
55	> 3000	CC(C)CN1C(=O)C(NC(=O)Nc2cccc(-c3nnn[nH]3)c2)N=C(C2CCNCC2)c2ccccc21 (centres unmarked) [Example 11, N-[2,3-Dihydro-1-(2-methylpropyl)-2-oxo-5-(piperidin-4-yl)-1H-1,4-benzodiazepin-3-yl]-N'-[3-(tetrazol-5-yl)phenyl]urea, trifluoroacetic acid salt]	–	–

Reference: US5521175A, “Benzodiazepine derivatives” (Merck Sharp & Dohme Ltd., priority 1992, dated 1996)
